According to US12622910B2, “Inhibitors of Bruton's tyrosine kinase and methods of their use” (Janssen Pharmaceutica NV, priority 2021, dated 2026):

Experiments:
AR (h) = AR (h) (Homo sapiens, UniProt P10275); test: Receptor panel, Study 2; type: binding
Experimental: (§1) RESULTS AND DISCUSSION—Selectivity—The compound of Formula (III) was evaluated in three selectivity panels to assess the potential for off-target pharmacology (Table 8). […] The kinase off-target profile of The compound of Formula (III) was assessed in a full human wild-type panel using radiometric kinase activity assays (KinaseProfiler™ and IC50Profiler™; Eurofins Scientific) (Table 9; FIG. 23). The compound of Formula (III) inhibited 4/278 kinases >50% at 1 micromolar, identifying BTK and the three other kinases having analogous Cys residues with the potential for covalent inhibition (BMX, TEC, BLK). […]. The cellular kinase selectivity of The compound of Formula (III) was established in native Ramos B cell kinome assays (KiNativ™; ActivX) confirmed BTK as the primary target with inhibition of BLK and TEC inhibition detected (Table 10).

Ach (h) = Ach (h) (Homo sapiens, UniProt P22303); test: Receptor panel, Study 2; type: binding
Experimental: as §1

Beta2 (h) = Beta2 (h) (Homo sapiens, UniProt P07550); test: Receptor panel, Study 2; type: binding
Experimental: as §1

CB1 (h) = CB1 (h) (Homo sapiens, UniProt P21554); test: Receptor panel, Study 2; type: binding
Experimental: as §1

CB2 (h) = CB2 (h) (Homo sapiens, UniProt P34972); test: Receptor panel, Study 2; type: binding
Experimental: as §1

Ca channel = test: Receptor panel, Study 2; type: binding
Experimental: as §1

GR (h) = GR (h) (Homo sapiens, UniProt P04150); test: Receptor panel, Study 2; type: binding
Experimental: as §1

MAO-A = MAO-A (Rattus norvegicus, UniProt P21396); test: Receptor panel, Study 2; type: binding
Experimental: as §1

N neuronal α4β2 (h) = N neuronal α4β2 (h) (Homo sapiens, UniProt P17787+P43681); test: Receptor panel, Study 2; type: binding
Experimental: as §1

NMDA = test: Receptor panel, Study 2; type: binding
Experimental: as §1

PDE3A (h) = PDE3A (h) (Homo sapiens, UniProt Q14432); test: Receptor panel, Study 2; type: binding
Experimental: as §1

PDE4D2 (h) = PDE4D2 (h) (Homo sapiens, UniProt Q08499); test: Receptor panel, Study 2; type: binding
Experimental: as §1

mGluR5 (h) = mGluR5 (h) (Homo sapiens, UniProt P41594); test: Receptor panel, Study 2; type: binding
Experimental: as §1

[1] = Covalent binding to hepatic proteins in human hepatocytes (14C label); type: in vitro ADME
Experimental: The extent of the compound of Formula (III) covalent binding to hepatic proteins was determined in human hepatocytes at 1 and 10 μM (Table 19). A ^14C label was introduced at the acrylamide carbonyl carbon of the compound of Formula (III). […] Troglitazone and pioglitazone served as positive and negative controls, respectively.

[2] = test system: HBL1 (CD79b/Myd88/A20 mutant); test: Antiproliferative activity, 8 days; type: cell-based; conditions: Homo sapiens, HBL1, 192 h, n = 4
Experimental: (§2) In Vitro Activity in DLBCL Cell Lines—NFκB signaling regulates the secretion of multiple cytokines, including interleukin (IL)-6 and IL-10. Secretion of IL-6 and -10 by ABC-DLBCL OCI-LY-10 cells was measured using a MesoScale assay. […] To determine the anti-proliferative activity of the compound of formula (III), several ABC-DLBCL cell lines—OCI-LY-3, OCI-LY-10, TMD8, and HBL-1—were treated for 8 days. […] The OCI-LY-3 cell line, which harbors a CARD11 mutation downstream of BTK in the NF-κB signaling pathway, was completely insensitive to the compound of Formula (III) up to 2 μM. In 2 experiments, OCI-LY-3 cells were insensitive to the compound of Formula (III) at all concentrations up to 10 μM.

[3] = test system: OCI-LY10 (CD79b/Myd88/A20 mutant); test: Antiproliferative activity, 8 days; type: cell-based; conditions: Homo sapiens, OCI-Ly10, 192 h, n = 4
Experimental: as §2

[4] = test system: TMD8 (CD79b/Myd88/A20 mutant); test: Antiproliferative activity, 8 days; type: cell-based; conditions: Homo sapiens, TMD8, 192 h, n = 4
Experimental: as §2

MDCK-MDR1 (Pgp) = test: MDCK-MDR1 permeability and efflux
Experimental: In vitro Absorption, Distribution, Metabolism, and Excretion—The compound of Formula (III) was assessed at a concentration of 5 μM in cell permeability models.

Chain of PDE3A (h) (Q14432 whole entry): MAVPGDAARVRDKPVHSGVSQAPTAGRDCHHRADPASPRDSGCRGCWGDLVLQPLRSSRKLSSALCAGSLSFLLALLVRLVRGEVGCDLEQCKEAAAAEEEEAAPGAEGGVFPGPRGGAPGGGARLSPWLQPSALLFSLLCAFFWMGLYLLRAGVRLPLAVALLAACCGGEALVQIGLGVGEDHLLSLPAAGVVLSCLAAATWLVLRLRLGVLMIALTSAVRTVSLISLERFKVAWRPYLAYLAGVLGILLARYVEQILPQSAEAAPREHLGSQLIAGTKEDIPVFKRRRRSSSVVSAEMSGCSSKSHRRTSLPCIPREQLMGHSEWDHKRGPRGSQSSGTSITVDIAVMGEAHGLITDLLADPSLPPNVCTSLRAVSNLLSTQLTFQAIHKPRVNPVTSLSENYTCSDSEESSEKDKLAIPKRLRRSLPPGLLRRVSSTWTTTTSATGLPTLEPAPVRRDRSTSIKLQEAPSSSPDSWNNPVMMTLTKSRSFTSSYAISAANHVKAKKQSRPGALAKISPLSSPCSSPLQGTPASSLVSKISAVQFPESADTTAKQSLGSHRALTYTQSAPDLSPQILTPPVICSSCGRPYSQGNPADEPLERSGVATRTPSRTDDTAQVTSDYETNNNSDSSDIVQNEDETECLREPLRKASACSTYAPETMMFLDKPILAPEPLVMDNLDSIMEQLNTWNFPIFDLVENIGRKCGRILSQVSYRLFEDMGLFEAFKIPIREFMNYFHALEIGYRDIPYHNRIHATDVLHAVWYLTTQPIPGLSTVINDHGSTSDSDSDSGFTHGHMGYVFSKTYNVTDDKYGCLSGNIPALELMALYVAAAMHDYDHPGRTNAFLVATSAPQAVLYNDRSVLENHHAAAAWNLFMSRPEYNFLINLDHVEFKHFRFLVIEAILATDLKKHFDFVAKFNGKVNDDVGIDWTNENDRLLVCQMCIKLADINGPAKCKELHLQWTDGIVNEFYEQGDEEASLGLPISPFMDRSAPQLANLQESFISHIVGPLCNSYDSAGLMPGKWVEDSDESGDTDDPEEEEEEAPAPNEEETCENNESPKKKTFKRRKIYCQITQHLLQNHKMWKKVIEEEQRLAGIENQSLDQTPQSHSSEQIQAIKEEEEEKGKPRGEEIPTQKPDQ
Chain of Ach (h) (P22303 32-614): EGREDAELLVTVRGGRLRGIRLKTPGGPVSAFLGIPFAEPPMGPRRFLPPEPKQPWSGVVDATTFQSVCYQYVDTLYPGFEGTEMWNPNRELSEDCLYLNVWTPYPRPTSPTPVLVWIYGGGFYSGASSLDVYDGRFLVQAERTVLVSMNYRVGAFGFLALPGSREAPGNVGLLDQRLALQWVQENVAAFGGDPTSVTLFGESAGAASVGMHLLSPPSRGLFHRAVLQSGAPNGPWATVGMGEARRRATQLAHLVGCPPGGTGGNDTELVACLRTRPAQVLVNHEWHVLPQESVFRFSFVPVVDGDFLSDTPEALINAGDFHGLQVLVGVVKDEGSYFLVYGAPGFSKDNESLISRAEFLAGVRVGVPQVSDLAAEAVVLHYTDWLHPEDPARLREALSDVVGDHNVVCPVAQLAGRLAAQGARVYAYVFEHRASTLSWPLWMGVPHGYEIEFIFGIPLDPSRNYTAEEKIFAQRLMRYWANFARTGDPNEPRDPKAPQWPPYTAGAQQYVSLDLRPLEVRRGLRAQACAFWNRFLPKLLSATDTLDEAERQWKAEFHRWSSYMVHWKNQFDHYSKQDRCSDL
Chain of MAO-A (P21396 whole entry): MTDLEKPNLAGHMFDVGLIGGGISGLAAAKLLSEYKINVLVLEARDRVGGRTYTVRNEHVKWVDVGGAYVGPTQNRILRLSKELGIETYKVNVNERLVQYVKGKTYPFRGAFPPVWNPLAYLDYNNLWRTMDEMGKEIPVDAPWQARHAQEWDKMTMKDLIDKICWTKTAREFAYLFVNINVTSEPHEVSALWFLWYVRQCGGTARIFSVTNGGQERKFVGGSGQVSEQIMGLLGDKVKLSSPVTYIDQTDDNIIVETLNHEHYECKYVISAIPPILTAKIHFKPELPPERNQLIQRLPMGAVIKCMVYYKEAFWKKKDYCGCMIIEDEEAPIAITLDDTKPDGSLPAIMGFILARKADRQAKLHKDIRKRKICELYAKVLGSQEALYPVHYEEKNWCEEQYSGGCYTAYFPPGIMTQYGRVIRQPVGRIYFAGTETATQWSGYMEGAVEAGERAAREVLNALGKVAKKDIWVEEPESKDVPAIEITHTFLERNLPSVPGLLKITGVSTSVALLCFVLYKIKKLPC
Chain of mGluR5 (h) (P41594 21-1212): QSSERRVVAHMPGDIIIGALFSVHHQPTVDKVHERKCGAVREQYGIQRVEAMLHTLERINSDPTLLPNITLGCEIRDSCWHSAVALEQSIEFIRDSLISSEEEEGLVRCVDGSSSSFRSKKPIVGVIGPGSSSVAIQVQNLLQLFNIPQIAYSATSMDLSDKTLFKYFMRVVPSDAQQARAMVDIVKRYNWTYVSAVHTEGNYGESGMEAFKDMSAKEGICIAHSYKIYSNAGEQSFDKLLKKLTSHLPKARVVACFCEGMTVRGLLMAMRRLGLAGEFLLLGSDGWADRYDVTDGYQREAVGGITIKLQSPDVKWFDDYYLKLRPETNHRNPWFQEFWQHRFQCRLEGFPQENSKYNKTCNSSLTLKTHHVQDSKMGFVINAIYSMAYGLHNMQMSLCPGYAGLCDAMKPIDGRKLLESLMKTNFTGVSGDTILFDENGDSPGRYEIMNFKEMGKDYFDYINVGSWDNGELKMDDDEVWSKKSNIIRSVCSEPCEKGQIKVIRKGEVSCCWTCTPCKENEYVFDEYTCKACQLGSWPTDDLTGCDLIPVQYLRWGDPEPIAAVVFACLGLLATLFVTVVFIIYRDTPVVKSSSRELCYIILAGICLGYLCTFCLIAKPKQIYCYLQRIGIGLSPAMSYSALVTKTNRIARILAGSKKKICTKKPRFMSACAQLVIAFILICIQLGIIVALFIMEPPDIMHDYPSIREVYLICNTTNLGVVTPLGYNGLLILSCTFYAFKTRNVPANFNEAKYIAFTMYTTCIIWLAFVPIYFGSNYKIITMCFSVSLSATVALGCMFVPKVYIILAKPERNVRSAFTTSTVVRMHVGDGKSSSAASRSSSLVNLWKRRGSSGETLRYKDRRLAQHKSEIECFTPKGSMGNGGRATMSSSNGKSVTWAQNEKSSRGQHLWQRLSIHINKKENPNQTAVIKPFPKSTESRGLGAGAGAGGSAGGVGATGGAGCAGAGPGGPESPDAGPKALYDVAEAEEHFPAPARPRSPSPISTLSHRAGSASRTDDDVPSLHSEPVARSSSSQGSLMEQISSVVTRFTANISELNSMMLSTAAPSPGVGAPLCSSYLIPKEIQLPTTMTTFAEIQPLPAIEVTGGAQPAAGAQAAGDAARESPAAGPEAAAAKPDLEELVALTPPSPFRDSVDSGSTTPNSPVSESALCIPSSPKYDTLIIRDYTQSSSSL
Chain of PDE4D2 (h) (Q08499 303-809 limits assumed): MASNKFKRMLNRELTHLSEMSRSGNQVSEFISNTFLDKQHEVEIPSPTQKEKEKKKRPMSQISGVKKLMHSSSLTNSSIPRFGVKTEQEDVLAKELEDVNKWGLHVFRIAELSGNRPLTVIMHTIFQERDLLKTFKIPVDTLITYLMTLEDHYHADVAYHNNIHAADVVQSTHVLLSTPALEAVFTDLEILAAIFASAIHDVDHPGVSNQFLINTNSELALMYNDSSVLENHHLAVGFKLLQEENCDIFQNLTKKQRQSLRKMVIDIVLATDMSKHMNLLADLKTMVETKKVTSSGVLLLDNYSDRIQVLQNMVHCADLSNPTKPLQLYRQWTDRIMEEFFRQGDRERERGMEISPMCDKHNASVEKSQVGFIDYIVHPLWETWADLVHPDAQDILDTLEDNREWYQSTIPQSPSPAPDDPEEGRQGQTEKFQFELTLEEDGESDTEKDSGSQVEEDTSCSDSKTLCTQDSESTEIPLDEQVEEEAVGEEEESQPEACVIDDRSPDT
Chain of CB2 (h) (P34972 whole entry): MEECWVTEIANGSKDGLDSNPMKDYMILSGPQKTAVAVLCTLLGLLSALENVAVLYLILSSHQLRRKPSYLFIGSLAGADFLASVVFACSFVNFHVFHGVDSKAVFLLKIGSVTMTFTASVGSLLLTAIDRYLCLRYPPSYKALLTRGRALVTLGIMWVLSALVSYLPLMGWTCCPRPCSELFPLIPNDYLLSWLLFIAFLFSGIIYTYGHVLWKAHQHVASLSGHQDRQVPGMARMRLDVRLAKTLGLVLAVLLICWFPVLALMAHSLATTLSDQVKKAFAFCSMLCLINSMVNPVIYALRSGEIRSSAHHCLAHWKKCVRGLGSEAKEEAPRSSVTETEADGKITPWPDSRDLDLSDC
Chain of CB1 (h) (P21554 whole entry): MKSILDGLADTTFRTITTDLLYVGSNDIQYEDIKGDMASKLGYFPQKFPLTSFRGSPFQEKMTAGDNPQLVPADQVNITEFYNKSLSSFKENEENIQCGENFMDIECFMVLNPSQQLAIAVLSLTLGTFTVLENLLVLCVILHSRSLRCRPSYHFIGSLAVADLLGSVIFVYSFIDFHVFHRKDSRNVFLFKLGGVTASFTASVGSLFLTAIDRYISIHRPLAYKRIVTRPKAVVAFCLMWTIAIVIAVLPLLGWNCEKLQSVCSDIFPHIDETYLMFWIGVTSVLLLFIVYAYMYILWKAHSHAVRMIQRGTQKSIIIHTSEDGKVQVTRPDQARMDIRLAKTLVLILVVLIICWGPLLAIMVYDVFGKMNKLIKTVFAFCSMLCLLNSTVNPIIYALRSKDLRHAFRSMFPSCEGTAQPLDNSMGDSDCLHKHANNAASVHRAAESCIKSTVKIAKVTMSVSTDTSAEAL

C=CC(=O)N[C@H]1CCC[C@H]1NC(=O)c1sc2nccc3c2c1NC(=O)N3c1cnc(CC(C)C)cc1C (atropisomer, axis not shown) [compound of Formula (III), N-((1R,2S)-2-Acrylamidocyclopentyl)-5-(S)-(6-isobutyl-4-methylpyridin-3-yl)-4-oxo-4,5-dihydro-3H-1-thia-3,5,8-triazaacenaphthylene-2-carboxamide]
inhibition at 10 µM (AR (h)): < 10% | inhibition at 10 µM (Ach (h)): 11% | inhibition at 10 µM (Beta2 (h)): < 10% | inhibition at 10 µM (CB1 (h)): < 10% | inhibition at 10 µM (CB2 (h)): < 10% | % Inhibition at 10 μM (Ca channel): — (no inhibition observed) | inhibition at 10 µM (GR (h)): < 10% | inhibition at 10 µM (MAO-A): 14% | inhibition at 10 µM (N neuronal α4β2 (h)): < 10% | % Inhibition at 10 μM (NMDA): — (no inhibition observed) | inhibition at 10 µM (PDE3A (h)): < 10% | inhibition at 10 µM (PDE4D2 (h)): < 10% | inhibition at 10 µM (mGluR5 (h)): < 10% | Compound Turnover ([1]; 1 μM study): 49.1% | Fraction Covalently Bound (fcvb) ([1]; 1 μM study): 0.07 ± 0.01 | Net Covalent Binding ([1]; 1 μM study, 0.5×10^6 cells/mL, 4.5 h): 46.8 ± 5.1 pmol eq/mg protein | Compound Turnover ([1]; 10 μM study): 70.1% | Fraction Covalently Bound (fcvb) ([1]; 10 μM study): 0.00564 ± 0.0001 | Net Covalent Binding ([1]; 10 μM study, 0.75×10^6 cells/mL, 3 h): 50.0 ± 0.8 pmol eq/mg protein | IC50 [2]: 30 nM | IC50 [3]: 18 nM | IC50 [4]: 34 nM | Efflux Ratio (BA/AB) (MDCK-MDR1 (Pgp)): >115
